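Compound exposure: 48 hours, 5 concentrations, 96-well plates. Abbreviation: GI50, concentration required for 50% inhibition of growth. At the TGI there is no net growth.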
Key:
Experiment in all cases: NCI anticancer screen, dose series, 48 h
[1] = tested on: HOP-92 NSCLC
[2] = tested on: ACHN renal
[3] = tested on: HS 578T breast
[4] = tested on: NCI/ADR-RES ovarian
[5] = tested on: OVCAR-3 ovarian
[6] = tested on: MDA-MB-435
[7] = tested on: SR leukemia
[8] = tested on: SNB-75 CNS
[9] = tested on: HT29 colon
[10] = tested on: CCRF-CEM leukemia
[11] = tested on: UACC-257 melanoma
[12] = tested on: NCI-H460 lung
[13] = tested on: MOLT-4 leukemia
[14] = tested on: SNB-19 CNS
[15] = tested on: CAKI-1 renal
[16] = tested on: NCI-H226 lung
[17] = tested on: DU-145 prostate
[18] = tested on: UO-31 renal
[19] = tested on: UACC-62 melanoma
[20] = tested on: M14 melanoma
[21] = tested on: KM12 colon
[22] = tested on: COLO 205 colon
[23] = tested on: RPMI-8226 leukemia
[24] = tested on: T-47D breast
[25] = tested on: SF-539 CNS
[26] = tested on: SF-295 CNS
[27] = tested on: HL-60(TB) leukemia
[28] = tested on: A549 NSCLC
[29] = tested on: 786-0 renal
[30] = tested on: MDA-MB-231 breast
[31] = tested on: SN12C renal
[32] = tested on: NCI-H23 lung
[33] = tested on: HOP-62 NSCLC
[34] = tested on: SK-OV-3 ovarian
[35] = tested on: HCT-15 colon
[36] = tested on: SF-268 CNS
[37] = tested on: SK-MEL-5 melanoma
[38] = tested on: OVCAR-8 ovarian
[39] = tested on: HCT-116 colon
[40] = tested on: PC-3 prostate
[41] = tested on: MCF7 breast
[42] = tested on: K-562 leukemia
[43] = tested on: OVCAR-5 ovarian
[44] = tested on: SK-MEL-2 melanoma
[45] = tested on: SW-620 colon
[46] = tested on: A498 renal
[47] = tested on: OVCAR-4 ovarian
[48] = tested on: SK-MEL-28 melanoma
[49] = tested on: TK-10 renal
[50] = tested on: U251 CNS

For `c1ccc(-c2c(-c3ccccc3)[n+](Cc3ccc4ccccc4c3)cn2Cc2ccc3ccccc3c2)cc1`, the GI50 [1] was 0.122 µM, the TGI [1] was 1.26 µM and the GI50 [2] was 1.47 µM. For the same compound, the TGI [2] was 2.9 µM, the GI50 [3] was 1.74 µM and the TGI [3] was 4.91 µM. The GI50 [4] was 2.13 µM and the TGI [4] was 5.12 µM.

`CC(C)[Si](OC12CCC(CC1O)CC2CO)(C(C)C)C(C)C` (configuration not stated) was tested, and the TGI [5] was 27.6 µM, the TGI [6] was 31.7 µM and the TGI [7] was 38.5 µM. The TGI [8] was 26.8 µM, the TGI [1] was 29 µM and the TGI [9] was 28.9 µM. The TGI [10] was 31.6 µM, the TGI [11] was 26.6 µM and the TGI [12] was 25.2 µM. For the same compound, the TGI [13] was 44.6 µM, the TGI [14] was 28.6 µM and the TGI [15] was 39.3 µM. The TGI [16] was 33.6 µM, the TGI [17] was 35.5 µM and the TGI [18] was 26.8 µM. The TGI [19] was 28.9 µM, the TGI [20] was 28.4 µM and the TGI [2] was 27.2 µM. For the same compound, the TGI [21] was 25.3 µM, the TGI [22] was 42.2 µM and the TGI [23] was 38.1 µM. For the same compound, the TGI [24] was 25.7 µM, the TGI [25] was 38 µM and the TGI [26] was 24.6 µM. It also gave a TGI [27] of 6.73 µM, a TGI [28] of 22.1 µM and a TGI [29] of 22.3 µM. It also gave a TGI [30] of 45.6 µM, a TGI [31] of 60.6 µM and a TGI [32] of 25.4 µM. It also gave a TGI [33] of 29.9 µM, a TGI [34] of 27.5 µM and a TGI [35] of 27.1 µM. It also gave a TGI [36] of 27.9 µM, a TGI [4] of 28.3 µM and a TGI [37] of 47.6 µM. For the same compound, the TGI [38] was 29.7 µM, the TGI [39] was 20.7 µM and the TGI [40] was 24.1 µM. The TGI [41] was 24.4 µM, the TGI [42] was greater than 100 µM and the TGI [43] was 31.2 µM. The TGI [44] was 29.3 µM, the TGI [45] was 52.4 µM and the TGI [46] was 32 µM. The TGI [47] was 23.7 µM, the TGI [48] was 40.8 µM and the TGI [49] was 27.5 µM. The TGI [50] was 28 µM.
